The text below walks through data of patent US10688047B2, “Physically and chemically stable oral suspensions of givinostat” (ITALFARMACO SPA, priority 2015, dated 2020).

A short description of series [1]: Solubility of Givinostat (ITF2357) in water, buffers and aqueous vehicles. The format is physicochemical. To be noted: phosphate buffer.
Experiment in series [2]: as above
It counts as physicochemical. How it is done:
Solubility of Givinostat was tested in aqueous vehicles at pH 6, containing Phosphate buffer. Tween 20 as wetting agent and either Sorbitol or Sucrose (40% w/v). To this aim, an amount of Givinostat sufficient to ensure saturation was mixed with 15 mL of each vehicle in separate vials. These vials were shaken at 25° C.±PC for at least 24 hours in order to obtain equilibrium. The saturated solution was then separated from the excess solid by filtration and Givinostat (ITF2357) was quantitated in the filtrate by UV-Vis spectrophotometric technique.
In table 4 solubility value determined on ITF 2357 saturated solution in different buffer at pH 4.5 are reported.
Solubility of ITF2357 determined in suspension vehicles having compositions as described in Example 1, thus containing Sorbitol at 40% w/v and Tartrate buffer, at different pH (pH range from 4 to 7 adjusted with Tartaric Acid or Sodium Hydroxide) are shown in Table 5.

In the next series the test system is serum TNFα. To be noted: mice, oral administration of 1.0 to 10 mg/kg; cited from earlier work.
The nature of series [3]: Chemical stability of ITF2357 solutions (degradation on storage). It counts as physicochemical. How it is done:
For example, solubility of ITF2357 in phosphate buffers at pH 2, 4.5, 6 and 8 is about 1.13-2.88-0.77 and 0.05 mg/mL respectively. Thus, it is technically possible to prepare aqueous solutions of ITF2357, having concentrations, e.g., between 0.02 and 0.3% w/v, intended for oral administration. However, because of the poor Givinostat solubility, large volume of an oral solution formulation would need to be administered to allow administration of effective drug doses and this pose patient compliance issues. […] In a preferred embodiment, the suspension according to the invention further comprising at least a buffering agent.

Another series has as its system serum IFNγ. To be noted: mice, oral administration of 1.0 to 10 mg/kg; cited from earlier work.
Another series deals with IL-1β. The following applies: LPS-stimulated cultured human PBMCs; read-out: concentration reducing by 50% the release of intracellular interleukin IL-1β; cited from earlier work.
A further series concerns interferon-γ (IFNγ). To be noted: LPS-stimulated cultured human PBMCs; read-out: concentration reducing by 50% the production of IFNγ; cited from earlier work.
The conditions of series [4]: at 20° C.; cited from earlier work.

Molecules are shown by their SMILES. pIC50: −log10 of the molar value. Converted amounts (≈) assume the structure as drawn. Like-named read-outs stand apart in the source and are kept apart here.

For the molecule `CCN(CC)Cc1ccc2cc(COC(=O)Nc3ccc(C(=O)NO)cc3)ccc2c1` [ITF2357, Givinostat], the solubility in series [1] (pH 2, aqueous buffer, phosphate buffer pH 2) is about 1130 µg/mL (≈ 2680 µM); in series [1] (pH 6, aqueous buffer, phosphate buffer pH 6), about 770 µg/mL (≈ 1830 µM); in series [2] (acetate buffer, pH 4.5, aqueous buffer, thermodynamic from solid, Acetate buffer pH 4.5, read-out: ITF2357 solubility) it was 5100 µg/mL (≈ 12100 µM); in series [2] (aqueous vehicle, 25 °C, pH 6, aqueous with cosolvent or surfactant or cyclodextrin, thermodynamic from solid, Phosphate buffer pH 6, Tween 20, Sorbitol 10% (w/v), 25° C., read-out: ITF2357 Solubility), 2340 µg/mL (≈ 5550 µM); in series [2] (aqueous vehicle, 25 °C, pH 6, aqueous with cosolvent or surfactant or cyclodextrin, thermodynamic from solid, Phosphate buffer pH 6, Tween 20, Sorbitol 20% (w/v), 25° C., read-out: ITF2357 Solubility) it was 2110 µg/mL (≈ 5000 µM); in series [2] (aqueous vehicle, 25 °C, pH 6, aqueous with cosolvent or surfactant or cyclodextrin, thermodynamic from solid, Phosphate buffer pH 6, Tween 20, Sorbitol 30% (w/v), 25° C., read-out: ITF2357 Solubility), 2020 µg/mL (≈ 4790 µM). Also, the solubility in series [2] (aqueous vehicle, 25 °C, pH 6, aqueous with cosolvent or surfactant or cyclodextrin, thermodynamic from solid, Phosphate buffer pH 6, Tween 20, Sorbitol 40% (w/v), 25° C., read-out: ITF2357 Solubility) is 1930 µg/mL (≈ 4580 µM); in series [2] (aqueous vehicle, 25 °C, pH 6, aqueous with cosolvent or surfactant or cyclodextrin, thermodynamic from solid, Phosphate buffer pH 6, Tween 20, Sucrose 40% (w/v), 25° C., read-out: ITF2357 Solubility), 3880 µg/mL (≈ 9190 µM); in series [2] (phosphate buffer pH 4.5), 2880 µg/mL (≈ 6830 µM); in series [2] (phosphate buffer, pH 4.5, aqueous buffer, thermodynamic from solid, phosphate buffer pH 4.5, read-out: solubility), about 2880 µg/mL (≈ 6830 µM); in series [2] (phosphate buffer, pH 8, aqueous buffer, phosphate buffer pH 8, read-out: solubility), about 50 µg/mL (≈ 119 µM); in series [2] (purified water, water, purified water, read-out: solubility), about 2500 µg/mL (≈ 5930 µM). The solubility was 210 µg/mL (≈ 498 µM) in series [2] (suspension vehicle, pH 4, aqueous with cosolvent or surfactant or cyclodextrin, thermodynamic from solid, Tartrate buffer pH = 4.0, Tween 20, Sorbitol 40% w/v, read-out: ITF2357 solubility); 150 µg/mL (≈ 356 µM) in series [2] (suspension vehicle, pH 5, aqueous with cosolvent or surfactant or cyclodextrin, thermodynamic from solid, Tartrate buffer pH = 5.0, Tween 20, Sorbitol 40% w/v, read-out: ITF2357 solubility); 160 µg/mL (≈ 380 µM) in series [2] (suspension vehicle, pH 5.5, aqueous with cosolvent or surfactant or cyclodextrin, thermodynamic from solid, Tartrate buffer pH = 5.5, Tween 20, Sorbitol 40% w/v, read-out: ITF2357 solubility); 150 µg/mL (≈ 356 µM) in series [2] (suspension vehicle, pH 6, aqueous with cosolvent or surfactant or cyclodextrin, thermodynamic from solid, Tartrate buffer pH = 6.0, Tween 20, Sorbitol 40% w/v, read-out: ITF2357 solubility); 160 µg/mL (≈ 380 µM) in series [2] (suspension vehicle, pH 6.5, aqueous with cosolvent or surfactant or cyclodextrin, thermodynamic from solid, Tartrate buffer pH = 6.5, Tween 20, Sorbitol 40% w/v, read-out: ITF2357 solubility); 150 µg/mL (≈ 356 µM) in series [2] (suspension vehicle, pH 7, aqueous with cosolvent or surfactant or cyclodextrin, thermodynamic from solid, Tartrate buffer pH = 7.0, Tween 20, Sorbitol 40% w/v, read-out: ITF2357 solubility). Also, in series [2] (tartrate buffer, pH 4.5, aqueous buffer, thermodynamic from solid, Tartrate buffer pH 4.5, read-out: ITF2357 solubility), the solubility was determined as 230 µg/mL (≈ 546 µM). The “reduction of LPS-induced serum TNFα” value in the series with serum TNFα is “more than 50%”. For the same molecule, the degradation of solution entry is on record as “about 6.3%” in series [3] (phosphate buffer pH 2, 6 days at 40° C.); about 0.8% in series [3] (phosphate buffer pH 4.5, 6 days at 40° C.); about 0.5% in series [3] (phosphate buffer pH 6, 6 days at 40° C.); about 2.1% in series [3] (phosphate buffer pH 8, 6 days at 40° C.). In the series with serum IFNγ, the “reduction of LPS-induced serum IFNγ” value is on record as “more than 50%”. Besides, the results for the pIC50 in the series on IL-1β and in the series with interferon-γ (IFNγ) were 7.92 and 7.60, respectively.

On to `OC[C@H]1O[C@@](CO)(O[C@H]2O[C@H](CO)[C@@H](O)[C@H](O)[C@H]2O)[C@@H](O)[C@@H]1O` [Sucrose], for which the “parts of water in which 1 part dissolves” value in series [4] is 0.3 parts of water.

By solubility is commonly meant how much of the substance goes into solution per volume.
